Chromatographic logD and Ki data for 18 compounds are collected here from US10213433B2 (AbbVie Inc., priority 2010, dated 2019).

In general, chromatographic logD refers to lipophilicity estimated from chromatographic retention. A high value points to higher lipophilicity. By Ki is commonly meant the equilibrium dissociation constant of an inhibitor or competing ligand from its target.

Bcl-2 protein, sequence (P10415 whole entry): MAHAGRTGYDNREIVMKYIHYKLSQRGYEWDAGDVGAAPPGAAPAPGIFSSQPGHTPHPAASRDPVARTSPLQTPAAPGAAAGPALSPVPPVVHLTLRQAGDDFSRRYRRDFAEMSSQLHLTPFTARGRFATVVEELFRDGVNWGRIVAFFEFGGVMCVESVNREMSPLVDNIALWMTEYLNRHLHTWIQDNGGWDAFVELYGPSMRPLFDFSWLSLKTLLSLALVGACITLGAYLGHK

Tested on in one series: not listed separately
Nature of the series: log D at pH 7.4 by an HPLC method.
Details: not given
It is filed as physicochemical. The source says:
Table 2 below presents data for log D (a parameter related to lipophilicity) at pH 7.4, as determined by an HPLC method, for representative compounds.
In turn, `CC1(C)CCC(CN2CCN(c3ccc(C(=O)NS(=O)(=O)c4ccc(NCC5CCOCC5)c([N+](=O)[O-])c4)c(Oc4cnc5[nH]ccc5c4)c3)CC2)=C(c2ccc(Cl)cc2)C1` [Compound 5, 4-(4-{[2-(4-chlorophenyl)-4,4-dimethylcyclohex-1-en-1-yl]methyl}piperazin-1-yl)-N-({3-nitro-4-[(tetrahydro-2H-pyran-4-ylmethyl)amino]phenyl}sulfonyl)-2-(1H-pyrrolo[2,3-b]pyridin-5-yloxy)benzamide] returned a chromatographic logD of 5.37.

The next series deals with Bcl-2 protein (Homo sapiens (Human), UniProt P10415). Nature of the series: Bcl-2 binding TR-FRET (Time-Resolved Fluorescence-Resonance-Energy-Transfer) assay. The following applies: inhibition constant for binding to Bcl-2 protein. An excerpt:
The smaller the Ki value, the greater is the binding affinity.
(TR-FRET usually uses a lanthanide donor and a delayed reading to cut background.)
Consider `CC1(C)CCC(CN2CCN(c3ccc(C(=O)NS(=O)(=O)c4cnc(OC[C@]5(F)CC[C@@H](O)CC5)c(Cl)c4)c(Oc4cnc5[nH]ccc5c4)c3)CC2)=C(c2ccc(Cl)cc2)C1` [Compound 350, N-({5-chloro-6-[(cis-1-fluoro-4-hydroxycyclohexyl)methoxy]pyridin-3-yl}sulfonyl)-4-(4-{[2-(4-chlorophenyl)-4,4-dimethylcyclohex-1-en-1-yl]methyl}piperazin-1-yl)-2-(1H-pyrrolo[2,3-b]pyridin-5-yloxy)benzamide], for which the inhibition constant Ki was below 0.01 nM. Take `CC1(C)CCC(CN2CCN(c3ccc(C(=O)NS(=O)(=O)c4ccc(OCC5CCC6(CC5)COC6)c([N+](=O)[O-])c4)c(Oc4cnc5[nH]ccc5c4)c3)CC2)=C(c2ccc(Cl)cc2)C1` [Compound 351, 4-(4-{[2-(4-chlorophenyl)-4,4-dimethylcyclohex-1-en-1-yl]methyl}piperazin-1-yl)-N-{[3-nitro-4-(2-oxaspiro[3.5]non-7-ylmethoxy)phenyl]sulfonyl}-2-(1H-pyrrolo[2,3-b]pyridin-5-yloxy)benzamide]: the Ki is below 0.01 nM.

`O=C(NS(=O)(=O)c1ccc(NCC2CCOCC2)c([N+](=O)[O-])c1)c1ccc(N2CCN(CC3=C(c4ccc(Cl)cc4)CCC(CF)(CF)C3)CC2)cc1Oc1cnc2[nH]ccc2c1` [Compound 353, 4-(4-{[2-(4-chlorophenyl)-5,5-bis(fluoromethyl)cyclohex-1-en-1-yl]methyl}piperazin-1-yl)-N-({3-nitro-4-[(tetrahydro-2H-pyran-4-ylmethyl)amino]phenyl}sulfonyl)-2-(1H-pyrrolo[2,3-b]pyridin-5-yloxy)benzamide] yielded a Ki below 0.01 nM. On to `CC1(C)CCC(CN2CCN(c3ccc(C(=O)NS(=O)(=O)c4ccc(OCC5(F)CCN(C6COC6)CC5)c(C#N)c4)c(Oc4cnc5[nH]ccc5c4)c3)CC2)=C(c2ccc(Cl)cc2)C1` [Compound 357, 4-(4-{[2-(4-chlorophenyl)-4,4-dimethylcyclohex-1-en-1-yl]methyl}piperazin-1-yl)-N-[(3-cyano-4-{[4-fluoro-1-(oxetan-3-yl)piperidin-4-yl]methoxy}phenyl)sulfonyl]-2-(1H-pyrrolo[2,3-b]pyridin-5-yloxy)benzamide], for which the Ki was below 0.01 nM. `CC[C@]1(O)CC[C@@H](CNc2ccc(S(=O)(=O)NC(=O)c3ccc(N4CCN(CC5=C(c6ccc(Cl)cc6)CC(C)(C)CC5)CC4)cc3Oc3cnc4[nH]ccc4c3)cc2[N+](=O)[O-])CC1` [Compound 358, 4-(4-{[2-(4-chlorophenyl)-4,4-dimethylcyclohex-1-en-1-yl]methyl}piperazin-1-yl)-N-[(4-{[(trans-4-ethyl-4-hydroxycyclohexyl)methyl]amino}-3-nitrophenyl)sulfonyl]-2-(1H-pyrrolo[2,3-b]pyridin-5-yloxy)benzamide]: the inhibition constant (Ki) is below 0.01 nM.

Consider `CC[C@]1(O)CC[C@H](CNc2ccc(S(=O)(=O)NC(=O)c3ccc(N4CCN(CC5=C(c6ccc(Cl)cc6)CC(C)(C)CC5)CC4)cc3Oc3cnc4[nH]ccc4c3)cc2[N+](=O)[O-])CC1` [Compound 359, 4-(4-{[2-(4-chlorophenyl)-4,4-dimethylcyclohex-1-en-1-yl]methyl}piperazin-1-yl)-N-[(4-{[(cis-4-ethyl-4-hydroxycyclohexyl)methyl]amino}-3-nitrophenyl)sulfonyl]-2-(1H-pyrrolo[2,3-b]pyridin-5-yloxy)benzamide], for which the inhibition constant (Ki) is below 0.01 nM. With `COCC1(C)CCC(c2ccc(Cl)cc2)=C(CN2CCN(c3ccc(C(=O)NS(=O)(=O)c4ccc(NCC5CCOCC5)c([N+](=O)[O-])c4)c(Oc4cnc5[nH]ccc5c4)c3)CC2)C1` (stereo not drawn) [Compound 360, 4-(4-{[2-(4-chlorophenyl)-5-(methoxymethyl)-5-methylcyclohex-1-en-1-yl]methyl}piperazin-1-yl)-N-({3-nitro-4-[(tetrahydro-2H-pyran-4-ylmethyl)amino]phenyl}sulfonyl)-2-(1H-pyrrolo[2,3-b]pyridin-5-yloxy)benzamide], the Ki was below 0.01 nM. The compound `CC1(C)CCC(CN2CCN(c3ccc(C(=O)NS(=O)(=O)c4ccc(NC[C@H]5CN(C6COC6)CCO5)c([N+](=O)[O-])c4)c(Oc4cnc5[nH]ccc5c4)c3)CC2)=C(c2ccc(Cl)cc2)C1` [Compound 361, 4-(4-{[2-(4-chlorophenyl)-4,4-dimethylcyclohex-1-en-1-yl]methyl}piperazin-1-yl)-N-{[3-nitro-4-({[(2S)-4-(oxetan-3-yl)morpholin-2-yl]methyl}amino)phenyl]sulfonyl}-2-(1H-pyrrolo[2,3-b]pyridin-5-yloxy)benzamide] yielded a Ki below 0.01 nM. The same measure, in the same setting: in the case of `CC1(C)CCC(CN2CCN(c3ccc(C(=O)NS(=O)(=O)c4ccc(OC[C@H]5CC[C@@](C)(O)CC5)c(Cl)c4)c(Oc4cnc5[nH]ccc5c4)c3)CC2)=C(c2ccc(Cl)cc2)C1` [Compound 362, N-({3-chloro-4-[(trans-4-hydroxy-4-methylcyclohexyl)methoxy]phenyl}sulfonyl)-4-(4-{[2-(4-chlorophenyl)-4,4-dimethylcyclohex-1-en-1-yl]methyl}piperazin-1-yl)-2-(1H-pyrrolo[2,3-b]pyridin-5-yloxy)benzamide] it was 0.016 nM. On the same count and under the same terms, in the case of `CC1(C)CCC(CN2CCN(c3ccc(C(=O)NS(=O)(=O)c4cnc(NCC5CCOCC5)c([N+](=O)[O-])c4)c(Oc4cnc5[nH]ccc5c4)c3)CC2)=C(c2ccc(Cl)cc2)C1` [Compound 364, 4-(4-{[2-(4-chlorophenyl)-4,4-dimethylcyclohex-1-en-1-yl]methyl}piperazin-1-yl)-N-({5-nitro-6-[(tetrahydro-2H-pyran-4-ylmethyl)amino]pyridin-3-yl}sulfonyl)-2-(1H-pyrrolo[2,3-b]pyridin-5-yloxy)benzamide] it was below 0.01 nM; in that of `CC1(C)CCC(CN2CCN(c3ccc(C(=O)NS(=O)(=O)c4ccc(NCC5CCC6(CC5)COC6)c([N+](=O)[O-])c4)c(Oc4cnc5[nH]ccc5c4)c3)CC2)=C(c2ccc(Cl)cc2)C1` [Compound 365, 4-(4-{[2-(4-chlorophenyl)-4,4-dimethylcyclohex-1-en-1-yl]methyl}piperazin-1-yl)-N-({3-nitro-4-[(2-oxaspiro[3.5]non-7-ylmethyl)amino]phenyl}sulfonyl)-2-(1H-pyrrolo[2,3-b]pyridin-5-yloxy)benzamide], below 0.01 nM; in that of `CC1(C)CCC(CN2CCN(c3ccc(C(=O)NS(=O)(=O)c4cnc(NC[C@H]5CC[C@@](C)(O)CC5)c([N+](=O)[O-])c4)c(Oc4cnc5[nH]ccc5c4)c3)CC2)=C(c2ccc(Cl)cc2)C1` [Compound 371, 4-(4-{[2-(4-chlorophenyl)-4,4-dimethylcyclohex-1-en-1-yl]methyl}piperazin-1-yl)-N-[(6-{[(trans-4-hydroxy-4-methylcyclohexyl)methyl]amino}-5-nitropyridin-3-yl)sulfonyl]-2-(1H-pyrrolo[2,3-b]pyridin-5-yloxy)benzamide], below 0.001 nM. The compound `CC1(C)CCC(CN2CCN(c3ccc(C(=O)NS(=O)(=O)c4ccc(NC(=O)N5CCOCC5)c([N+](=O)[O-])c4)c(Oc4cnc5[nH]ccc5c4)c3)CC2)=C(c2ccc(Cl)cc2)C1` [Compound 373, N-(4-{[4-(4-{[2-(4-chlorophenyl)-4,4-dimethylcyclohex-1-en-1-yl]methyl}piperazin-1-yl)-2-(1H-pyrrolo[2,3-b]pyridin-5-yloxy)benzoyl]sulfamoyl}-2-nitrophenyl)morpholine-4-carboxamide] gave an inhibition constant (Ki) below 0.001 nM.

On to `COCC1CCC(CNc2ccc(S(=O)(=O)NC(=O)c3ccc(N4CCN(CC5=C(c6ccc(Cl)cc6)CC(C)(C)CC5)CC4)cc3Oc3cnc4[nH]ccc4c3)cc2[N+](=O)[O-])CC1` (stereo not drawn) [Compound 374, 4-(4-{[2-(4-chlorophenyl)-4,4-dimethylcyclohex-1-en-1-yl]methyl}piperazin-1-yl)-N-{[4-({[4-(methoxymethyl)cyclohexyl]methyl}amino)-3-nitrophenyl]sulfonyl}-2-(1H-pyrrolo[2,3-b]pyridin-5-yloxy)benzamide], for which the Ki is below 0.001 nM.

Compound `CC1(C)CCC(CN2CCN(c3ccc(C(=O)NS(=O)(=O)c4cnc(NC[C@H]5CC[C@](C)(O)CC5)c([N+](=O)[O-])c4)c(Oc4cnc5[nH]ccc5c4)c3)CC2)=C(c2ccc(Cl)cc2)C1` [Compound 376, 4-(4-{[2-(4-chlorophenyl)-4,4-dimethylcyclohex-1-en-1-yl]methyl}piperazin-1-yl)-N-[(6-{[(cis-4-hydroxy-4-methylcyclohexyl)methyl]amino}-5-nitropyridin-3-yl)sulfonyl]-2-(1H-pyrrolo[2,3-b]pyridin-5-yloxy)benzamide] yielded a Ki below 0.001 nM. On to `COC1(C)CCC(c2ccc(Cl)cc2)=C(CN2CCN(c3ccc(C(=O)NS(=O)(=O)c4ccc(NC[C@H]5CC[C@@](C)(O)CC5)c([N+](=O)[O-])c4)c(Oc4cnc5[nH]ccc5c4)c3)CC2)C1` (stereo partly drawn) [Compound 377, 4-(4-{[2-(4-chlorophenyl)-5-methoxy-5-methylcyclohex-1-en-1-yl]methyl}piperazin-1-yl)-N-[(4-{[(trans-4-hydroxy-4-methylcyclohexyl)methyl]amino}-3-nitrophenyl)sulfonyl]-2-(1H-pyrrolo[2,3-b]pyridin-5-yloxy)benzamide], for which the Ki was below 0.001 nM. The compound `COC1(C)CCC(c2ccc(Cl)cc2)=C(CN2CCN(c3ccc(C(=O)NS(=O)(=O)c4ccc(NCC5CCOCC5)c([N+](=O)[O-])c4)c(Oc4cnc5[nH]ccc5c4)c3)CC2)C1` (stereo not drawn) [Compound 378, 4-(4-{[2-(4-chlorophenyl)-5-methoxy-5-methylcyclohex-1-en-1-yl]methyl}piperazin-1-yl)-N-({3-nitro-4-[(tetrahydro-2H-pyran-4-ylmethyl)amino]phenyl}sulfonyl)-2-(1H-pyrrolo[2,3-b]pyridin-5-yloxy)benzamide] showed a Ki below 0.001 nM.
